Here are results for 24 compounds from ChEMBL document CHEMBL1152840, “Antileukotrienic phenethylamido derivatives of arylalkanoic acids in the treatment of ulcerative colitis” (Eur J Med Chem, 2009).

The structures appear in SMILES notation.

In data set [1] the test system is Mus musculus. In words: Antiinflammatory activity against dextrane disodium sulfate-induced ulcerative colitis in BALB/c mouse assessed as length of colon at 250 mg/kg administered 1 hr before dextrane disodium sulfate challenge. The class given is functional.
In data set [2] the test system is Mus musculus. In words: Antiinflammatory activity in mouse assessed as inhibition of arachidonic acid-induced ear lobe edema at 200 mg/kg, po administered 1 hr before arachidonic acid challenge measured after 1 hr relative to untreated control. The class given is functional.
For data set [3], the system named is Mus musculus. In words: Antiinflammatory activity against dextrane disodium sulfate-induced ulcerative colitis in BALB/c mouse assessed as diseased animal with small intestine bleeding at 250 mg/kg administered 1 hr before dextrane disodium sulfate challenge. The class given is functional.
A short description of data set [4]: Antileukotrienic activity in rat PMNC assessed as inhibition of Ca2+ ionophore A23187-induced LTB4 production by RIA. The class given is functional.
Data set [5] concerns Mus musculus. In words: Antiinflammatory activity against dextrane disodium sulfate-induced ulcerative colitis in BALB/c mouse assessed as diseased animal with rectal prolapse at 250 mg/kg administered 1 hr before dextrane disodium sulfate challenge. The class given is functional.
Data set [6] relates to Mus musculus. In words: Antiinflammatory activity against dextrane disodium sulfate-induced ulcerative colitis in BALB/c mouse assessed as diseased animal with stool consistency at 250 mg/kg administered 1 hr before dextrane disodium sulfate challenge. The class given is functional.
For data set [7], the system named is Mus musculus. Put plainly: Antiinflammatory activity in mouse assessed as inhibition of arachidonic acid-induced ear lobe hyperemia at 200 mg/kg, po administered 1 hr before arachidonic acid challenge measured after 1 hr relative to untreated control. The class given is functional.
A short description of data set [8]: Lipophilicity, log K by HPLC method. The class given is physicochemical.
For data set [9], the system named is Mus musculus. In words: Antiinflammatory activity against dextrane disodium sulfate-induced ulcerative colitis in BALB/c mouse assessed as diseased animal with large intestine bleeding at 250 mg/kg administered 1 hr before dextrane disodium sulfate challenge. The class given is functional.
Data set [10] concerns Rattus norvegicus. In words: Antiinflammatory activity in rat assessed as inhibition of carrageenan-induced edema at 100 mg/kg relative to untreated control. The class given is functional.

In the case of `CC(CCc1ccc(OCCCOc2ccc(CC(=O)N(C)CCc3ccccc3)cc2)cc1)C(=O)O` (stereo not given), the Activity came to 7.2 cm in data set [1]; 0% in [3]; 0% in [5]; 100% in [6]; 60% in data set [9]. For the same compound, the inhibition in vivo at 200 mg/kg in [2] is 16%; in data set [7], 3.7%. The IC50 in data set [4] amounted to 7.5 µM. The “log K” value in data set [8] is recorded as 0.636.

For the compound `CC(CCc1ccc(OCCCCOc2ccc(CC(=O)N(C)CCc3ccccc3)cc2)cc1)C(=O)O` (stereo not given), the Activity amounted to 9.3 cm in data set [1]; 0% in data set [3]; 0% in data set [5]; 0% in data set [6]; 60% in data set [9]. Moreover, the inhibition in vivo at 200 mg/kg was found to be 22% in [2] and 3.7% in data set [7]. The IC50 in [4] amounted to 10 µM. The “log K” value in data set [8] amounted to 0.752. Besides, in data set [10], the inhibition in vivo at 100 mg/kg was 56%.

Take `CN(CCc1ccccc1)C(=O)Cc1ccc(OCCOc2ccc(C(=O)CCC(=O)O)cc2)cc1`: the Activity in data set [1] is on record as 9.2 cm; in data set [3], 0%; in [5] it was 0%; in data set [6], 0%; in data set [9], 20%. Moreover, the inhibition in vivo at 200 mg/kg in data set [2] turned out to be 16%; in [7] it was 3.6%. Also, the IC50 in [4] stood at 20 µM. Also, the “log K” value in data set [8] is listed as -0.089. In [10], the inhibition in vivo at 100 mg/kg came to 38%.

`CN(CCc1ccccc1)C(=O)Cc1ccc(OCCOc2ccc(/C=C/C(=O)O)cc2)cc1`: the figures for the inhibition in vivo at 200 mg/kg in data set [2] and in data set [7] were 9.4% and 3.4%, respectively. Further, the 50% inhibitory concentration (IC50) in data set [4] was found to be 47 µM. Also, the “log K” value in [8] turned out to be 0.081. For the same compound, the inhibition in vivo at 100 mg/kg in [10] turned out to be 43%.

For `COc1cc(/C=C/C(=O)O)ccc1OCCOc1ccc(CC(=O)N(C)CCc2ccccc2)cc1`, the Activity came to 7.2 cm in data set [1]; 0% in [3]; 0% in data set [5]; 40% in data set [6]; 40% in [9]. Moreover, the inhibition in vivo at 200 mg/kg in data set [2] worked out at 23%; in [7], 0%. For the same compound, the “log K” value in data set [8] is listed as -0.061. Moreover, the inhibition in vivo at 100 mg/kg in [10] amounted to 10%.

Turning to `CN(CCc1ccccc1)C(=O)Cc1ccc(OCCCOc2ccc(/C=C/C(=O)O)cc2)cc1`, the inhibition in vivo at 200 mg/kg in [2] is 21%; in data set [7] it was 3.7%. In addition, the IC50 in data set [4] came to 8.5 µM. Moreover, the “log K” value in data set [8] was determined as 0.336. In addition, the inhibition in vivo at 100 mg/kg in data set [10] turned out to be 13%.

For `COc1cc(/C=C/C(=O)O)ccc1OCCCOc1ccc(CC(=O)N(C)CCc2ccccc2)cc1`, the figures for the inhibition in vivo at 200 mg/kg in data set [2] and in [7] were 16% and 7.1%, respectively. In data set [8], the “log K” value stood at 0.166. Further, in data set [10], the inhibition in vivo at 100 mg/kg came out at 20%.

Consider `CN(CCc1ccccc1)C(=O)Cc1ccc(OCCOc2ccc(CCCC(=O)O)cc2)cc1`, for which the Activity came to 7.1 cm in [1]; 0% in [3]; 0% in [5]; 80% in data set [6]; 100% in [9]. Moreover, the inhibition in vivo at 200 mg/kg turned out to be 12% in [2] and 3.6% in data set [7]. Also, the IC50 in [4] was 9.5 µM. Moreover, the “log K” value in data set [8] is 0.231. For the same compound, the inhibition in vivo at 100 mg/kg in [10] worked out at 36%.

On to `CN(CCc1ccccc1)C(=O)Cc1ccc(OCCCOc2ccc(CCCC(=O)O)cc2)cc1`, for which the inhibition in vivo at 200 mg/kg came to 13% in data set [2] and 3.4% in data set [7]. Besides, in data set [4], the IC50 turned out to be 12 µM. Also, the “log K” value in data set [8] was 0.451. The inhibition in vivo at 100 mg/kg in data set [10] was determined as 30%.

`CN(CCc1ccccc1)C(=O)Cc1ccc(OCCCCOc2ccc(CCCC(=O)O)cc2)cc1`: the Activity in data set [1] came out at 7.2 cm; in data set [3] it was 0%; in data set [5], 0%; in data set [6], 60%; in data set [9], 100%. Also, the inhibition in vivo at 200 mg/kg in data set [2] came to 22%; in [7], 3.7%. Also, the IC50 in [4] amounted to 16 µM. Besides, the “log K” value in data set [8] turned out to be 0.6. Besides, the inhibition in vivo at 100 mg/kg in data set [10] stood at 38%.

For `CC(CCc1ccc(OCCOc2ccc(CC(=O)N(C)CCc3ccccc3)cc2)cc1)C(=O)O` (stereo not given), the inhibition in vivo at 200 mg/kg in data set [2] turned out to be 14%; in data set [7], 3.7%. Further, the IC50 in data set [4] stood at 19 µM. Besides, in data set [8], the “log K” value is 0.38. The inhibition in vivo at 100 mg/kg in data set [10] amounted to 14%.

Turning to `CC(C(=O)O)c1ccc(OCCCOc2ccc(CC(=O)N(C)CCc3ccccc3)cc2)c(Cl)c1` (stereo not given), the IC50 in data set [4] is 9.1 µM. Further, the “log K” value in data set [8] is 0.432.

Consider `CC(C(=O)O)c1ccc(OCCCCOc2ccc(CC(=O)N(C)CCc3ccccc3)cc2)c(Cl)c1` (stereo not given), for which the Activity is reported as 7.9 cm in [1]; 0% in [3]; 0% in [5]; 0% in [6]; 60% in data set [9]. In addition, the inhibition in vivo at 200 mg/kg was found to be 37% in [2] and 0% in data set [7]. Further, the IC50 in [4] worked out at 5.6 µM. Also, the “log K” value in data set [8] turned out to be 0.554. In data set [10], the inhibition in vivo at 100 mg/kg was 44%.

Regarding `CN(CCc1ccccc1)C(=O)Cc1ccc(OCCCOc2ccc(CCC(=O)O)cc2)cc1`, the Activity was 6.8 cm in [1]; 0% in [3]; 0% in data set [5]; 80% in [6]; 100% in data set [9]. Also, the inhibition in vivo at 200 mg/kg in data set [2] was found to be 23%; in [7], 3.7%. Moreover, in [4], the IC50 worked out at 11 µM. For the same compound, in [8], the “log K” value came to 0.324. For the same compound, in data set [10], the inhibition in vivo at 100 mg/kg is 61%.

In the case of `CC(C(=O)O)c1cccc2ccc(OCCCOc3ccc(CC(=O)NCCc4ccccc4)cc3)cc12` (stereo not given), the inhibition in vivo at 200 mg/kg in [2] was 12%; in [7], 0%. Moreover, in data set [4], the IC50 amounted to 5.7 µM. For the same compound, in data set [8], the “log K” value turned out to be 0.617. In addition, the inhibition in vivo at 100 mg/kg in data set [10] is 30%.

With `COc1cc(CCC(=O)O)ccc1OCCCOc1ccc(CC(=O)N(C)CCc2ccccc2)cc1`, the inhibition in vivo at 200 mg/kg in data set [2] is 12%; in data set [7] it was 7.4%. Moreover, in data set [8], the “log K” value turned out to be 0.175. In addition, in [10], the inhibition in vivo at 100 mg/kg came out at 26%.

Consider `COc1cc(CCC(=O)O)ccc1OCCCCOc1ccc(CC(=O)N(C)CCc2ccccc2)cc1`, for which the Activity came to 7 cm in [1]; 0% in data set [3]; 0% in data set [5]; 60% in [6]; 100% in [9]. Moreover, the inhibition in vivo at 200 mg/kg in [2] is 20%; in data set [7], 11%. Also, the IC50 in data set [4] worked out at 8.1 µM. Besides, the “log K” value in data set [8] was determined as 0.267. Moreover, the inhibition in vivo at 100 mg/kg in [10] was 27%.

For the compound `CC(C(=O)O)c1ccc(OCCCOc2ccc(CC(=O)N(C)CCc3ccccc3)cc2)cc1` (stereo not given), the values for the inhibition in vivo at 200 mg/kg in data set [2] and in [7] were 19% and 3.7%, respectively. Besides, in data set [4], the IC50 came to 100 µM. In addition, the “log K” value in data set [8] is reported as 0.344. For the same compound, the inhibition in vivo at 100 mg/kg in data set [10] came to 9.2%.

For the compound `CC(Cc1ccc(OCCCOc2ccc(CC(=O)N(C)CCc3ccccc3)cc2)cc1)C(=O)O` (stereo not given), the IC50 in data set [4] amounted to 8.2 µM. For the same compound, the “log K” value in data set [8] worked out at 0.502.

With `CC(Cc1ccc(OCCCCOc2ccc(CC(=O)N(C)CCc3ccccc3)cc2)cc1)C(=O)O` (stereo not given), the inhibition in vivo at 200 mg/kg in data set [2] stood at 10%; in data set [7] it was 7.4%. Also, the IC50 in data set [4] worked out at 10 µM. Further, the “log K” value in data set [8] came out at 0.604. Further, the inhibition in vivo at 100 mg/kg in data set [10] amounted to 37%.

For `CN(CCc1ccccc1)C(=O)Cc1ccc(OCCCCOc2ccc(CCC(=O)O)cc2)cc1`, the inhibition in vivo at 200 mg/kg worked out at 13% in data set [2] and 3.4% in data set [7]. Further, the IC50 in data set [4] worked out at 10 µM. Moreover, the “log K” value in data set [8] amounted to 0.451. In addition, the inhibition in vivo at 100 mg/kg in [10] was 30%.

Take `CC(C(=O)O)c1ccc(OCCCCOc2ccc(CC(=O)N(C)CCc3ccccc3)cc2)cc1` (stereo not given): the Activity came to 7.2 cm in data set [1]; 20% in data set [3]; 0% in data set [5]; 100% in data set [6]; 100% in [9]. The inhibition in vivo at 200 mg/kg was determined as 19% in data set [2] and 0% in data set [7]. Further, the IC50 in [4] was found to be 31 µM. Further, in [8], the “log K” value came out at 0.458. Moreover, the inhibition in vivo at 100 mg/kg in [10] was 63%.

Regarding `CN(CCc1ccccc1)C(=O)Cc1ccc(OCCCCOc2ccc(/C=C/C(=O)O)cc2)cc1`, the inhibition in vivo at 200 mg/kg in data set [2] amounted to 22%; in data set [7] it was 6.7%. Further, in data set [4], the IC50 turned out to be 8.7 µM. The “log K” value in data set [8] is recorded as 0.462. In addition, the inhibition in vivo at 100 mg/kg in data set [10] was determined as 20%.

Take `O=C(O)c1cc(/N=N/c2ccc(S(=O)(=O)Nc3ccccn3)cc2)ccc1O` [SULFASALAZINE]: the Activity came out at 9.1 cm in data set [1]; 0% in data set [3]; 0% in data set [5]; 53% in [6]; 80% in [9].
